Among the data in publication PMC4725965, “Comprehensive Structural Characterization of the Bacterial Homospermidine Synthase–an Essential Enzyme of the Polyamine Metabolism” (Scientific Reports, 2016) are X-ray crystallography and stoichiometry N values, retold here.

Test [1] addresses T1, BvHSS (Blastochloris viridis, UniProt O32323).
T1 construct: gene hss; full-length BvHSS from pETM14, E. coli BL21 (DE3); N-terminal 6xHis-tag cut with HRV3C protease; homodimer; active site within one subunit; domains cover residues 3-477; first four amino acids not traced
T1 sequence (O32323 1-477): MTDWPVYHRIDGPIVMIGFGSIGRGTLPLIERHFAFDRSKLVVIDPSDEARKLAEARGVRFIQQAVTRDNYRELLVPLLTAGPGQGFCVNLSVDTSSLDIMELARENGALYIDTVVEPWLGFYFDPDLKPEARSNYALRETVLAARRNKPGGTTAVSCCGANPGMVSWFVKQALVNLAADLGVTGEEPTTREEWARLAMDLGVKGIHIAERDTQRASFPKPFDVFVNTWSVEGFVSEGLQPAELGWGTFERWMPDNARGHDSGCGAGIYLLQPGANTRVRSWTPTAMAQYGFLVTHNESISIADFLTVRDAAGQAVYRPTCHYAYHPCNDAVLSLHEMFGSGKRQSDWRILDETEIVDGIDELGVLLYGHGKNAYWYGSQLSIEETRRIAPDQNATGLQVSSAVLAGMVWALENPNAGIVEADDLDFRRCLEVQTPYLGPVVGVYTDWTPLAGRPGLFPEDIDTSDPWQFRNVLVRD
Briefly: X-ray crystallography. The format is biochemical. The settings on record: DAP co-crystal soaked 300 s with 0.2 M PUT; product formed in crystal; pH 4.8; active site, subunit A; transition-close state with partial Schiff base, modelled as 37Z.

Test [2] concerns the target T2, BvHSS (Blastochloris viridis, UniProt O32323, H296S).
T2 construct: gene hss; full-length BvHSS from pETM14, E. coli BL21 (DE3); N-terminal 6xHis-tag cut with HRV3C protease; homodimer; active site within one subunit; domains cover residues 3-477; first four amino acids not traced
Briefly: X-ray crystallography. The settings on record: pH 4.6. The format is binding.

The target in test [3] is T1, BvHSS. Briefly: X-ray crystallography. The format is binding.
The target in test [4] is T3, BvHSS (Blastochloris viridis, UniProt O32323, E237Q).
T3 construct: gene hss; full-length BvHSS from pETM14, E. coli BL21 (DE3); N-terminal 6xHis-tag cut with HRV3C protease; homodimer; active site within one subunit; domains cover residues 3-477; first four amino acids not traced
T3 sequence (O32323 whole entry E237Q, the tested form may be a part): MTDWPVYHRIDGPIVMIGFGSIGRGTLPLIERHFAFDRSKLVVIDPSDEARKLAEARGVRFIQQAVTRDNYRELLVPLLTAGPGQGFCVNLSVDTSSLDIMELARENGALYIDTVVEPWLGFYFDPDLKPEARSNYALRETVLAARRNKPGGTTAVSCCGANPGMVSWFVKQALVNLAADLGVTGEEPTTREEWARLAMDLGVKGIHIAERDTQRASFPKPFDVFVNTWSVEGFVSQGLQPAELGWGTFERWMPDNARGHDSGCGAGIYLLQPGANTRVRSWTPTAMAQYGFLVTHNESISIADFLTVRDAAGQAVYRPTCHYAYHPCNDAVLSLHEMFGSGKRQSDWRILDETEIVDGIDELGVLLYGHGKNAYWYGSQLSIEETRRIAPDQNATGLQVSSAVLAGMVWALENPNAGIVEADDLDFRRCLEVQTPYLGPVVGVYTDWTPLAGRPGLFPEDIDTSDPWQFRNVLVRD
Briefly: X-ray crystallography. It counts as binding. To be noted: co-crystal with 0.2 M AGM and 0.2 M PUT; no polyamine in active site; pH 4.6.

For test [5], the target named is Blastochloris viridis homospermidine synthase (Blastochloris viridis) (UniProt O32323). Briefly: crystal structure; hanging-drop vapour diffusion at 18 °C, reservoir 100 mM sodium acetate pH 4.6-4.8; NAD+ bound, with or without polyamines; two subunits (A and B) in the asymmetric unit.

T2 sequence (O32323 whole entry H296S, the tested form may be a part): as the sequence (O32323 whole entry E237Q, the tested form may be a part) above, with Q237E, H296S counted along it

Regarding `NCCCCNCCCCN` [sym-homospermidine, bis(4-aminobutyl)amine], the X-ray crystallography result in test [1] was “transition close state of the reduction to HSP bound in subunit A”. With `NC(=O)c1ccc[n+]([C@@H]2O[C@H](COP(=O)(O)OP(=O)(O)OC[C@H]3O[C@@H](n4cnc5c(N)ncnc54)[C@H](O)[C@@H]3O)[C@@H](O)[C@H]2O)c1` [NAD^+], the X-ray crystallography result in test [2] (co-crystal with 0.2 M AGM) was “BvHSS and BvHSS variants with bound NAD^+ in complex with various polyamines”; in test [3] (no polyamine, pH 4.6, non-covalently bound prosthetic group) it was “with bound NAD^+ (Protein Data Bank [PDB] ID: 4PLP)”; in test [4], “BvHSS and BvHSS variants with bound NAD^+ in complex with various polyamines”. Take `NCCCCN` [putrescine]: the X-ray crystallography result is “partial replacement of AGM with PUT (Fig. 6f)” in test [2] (AGM co-crystal soaked 300 s with 0.2 M PUT, NAD+ bound, active site, partial occupancy beside AGM, enzymatically inactive variant) and “The active site of BvHSS with bound PUT (PDB ID: 4TVB, subunit B)” in test [3] (DAP co-crystal soaked 300 s with 0.2 M PUT, NAD+ bound, pH 4.8, inner binding site, subunit B, transition-close state). On to `N=C(N)NCCCCN` [agmatine], for which the X-ray crystallography result in test [2] (co-crystal with 0.2 M AGM, NAD+ bound, active site) was “the variant H296S was found to bind AGM within the active site”. The term stoichiometry N denotes a count of units in the complex or per binding partner. With “Blastochloris viridis homospermidine synthase (from UniProt O32323 1-477) (enzyme)”, the stoichiometry N in test [5] was determined as 2. As to `NCCCN` [1,3-diaminopropane], in test [3] (co-crystal with 0.2 M DAP and 0.2 M PUT, NAD+ bound, pH 4.6, active site, second DAP at the ionic slide (pocket entrance), Table 3 misprints the PDB id as 4XQE), the X-ray crystallography result is “Two DAP molecules were found at two different positions in subunit A (PDB ID: 4XQC)”.
